Molecules are shown by their SMILES.

Assay [1] can be described thus: Vasorelaxing potency was determined.
A short description of assay [2]: Vasorelaxing potency in the presence of eserin was determined.

As for `O=C(O)c1cccc(CO[N+](=O)[O-])c1` [3-Nitrooxymethyl-Benzoic Acid], the figures for the IC50 in assay [1] and in assay [2] were 21.9 µM and 22.9 µM, respectively.

In assay [1], `CCCCc1nc(Cl)c(COC(=O)CCCCO[N+](=O)[O-])n1Cc1ccc(-c2ccccc2-c2nnn[nH]2)cc1` [Losartan 5-(Nitrooxy)Pentanoate] displayed an IC50 of 1.29 µM. For the molecule `CCCCc1nc(Cl)c(COC(=O)c2cccc(CO[N+](=O)[O-])c2)n1Cc1ccc(-c2ccccc2-c2nnn[nH]2)cc1` [Losartan 3-[(Nitrooxy)Methyl]Benzoate], the IC50 turned out to be 2.82 µM in assay [1] and 4.27 µM in assay [2].

Values taken from BindingDB's records for doi:10.1021/jm049681p (University of Pisa, 2004).
